In US20050043341A1, “3-'Hydroxy-(-4-trifluoromethylphenyl)-methyl-7-spirocyclobutyl-5,6,7 8-tetrahydroquinolin-5-ol derivatives and the use of the same as cholesterol ester transfer protein (cetp) inhibitors” (priority 2001, published 2005):
Where two headings read alike, the source gives them in different places.

How the values were obtained:
CETP [1] = molecular target: T1, CETP (Homo sapiens, UniProt P11597); assay: CETP fluorescence test; format: biochemical; conditions: CETP from human plasma, 37° C., 4 hours; read-out: IC50 (nM) Fluor. test
T1 construct: CETP is obtained in partially purified form from human plasma; from tissue; host or cells: human plasma
T1 sequence (P11597 18-493): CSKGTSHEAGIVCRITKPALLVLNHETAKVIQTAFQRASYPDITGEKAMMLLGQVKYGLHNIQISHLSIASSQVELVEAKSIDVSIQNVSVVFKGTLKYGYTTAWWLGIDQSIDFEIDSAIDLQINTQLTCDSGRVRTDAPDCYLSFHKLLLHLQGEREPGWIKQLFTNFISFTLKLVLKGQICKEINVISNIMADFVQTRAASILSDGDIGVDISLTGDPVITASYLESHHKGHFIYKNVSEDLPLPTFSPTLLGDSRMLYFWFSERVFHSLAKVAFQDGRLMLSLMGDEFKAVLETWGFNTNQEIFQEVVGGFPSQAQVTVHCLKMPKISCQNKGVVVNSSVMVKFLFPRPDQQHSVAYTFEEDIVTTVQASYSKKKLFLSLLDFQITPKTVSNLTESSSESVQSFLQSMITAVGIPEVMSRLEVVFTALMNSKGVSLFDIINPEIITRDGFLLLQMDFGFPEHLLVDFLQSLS
Experimental: (§1) CETP is obtained in partially purified form from human plasma by differential centrifugation and column chromatography and used for the test. To this end, human plasma is adjusted to a density of 1.21 g per ml using NaBr and centrifuged at 4° C. at 50000 rpm for 18 h. The bottom fraction (d>1.21 g/ml) is applied to a Sephadex® Phenyl-Sepharose 4B (Pharmacia) column, washed with 0.15 M NaCl/0.001 M tris HCl pH 7.4 and then eluted with dist. water. Die CETP-active fractions are pooled, dialysed against 50 mM Na acetate pH 4.5 and applied to a CM-Sepharose® (Pharmacia) column. The mixture is then eluted using a linear gradient (0-1 M NaCl). The pooled CETP fractions are dialysed against 10 mM TrisHCl pH 7.4 and then further purified by chromatography on a Mono Q® column (Pharmacia).
Measurement of the CETP-catalysed transfer of a fluorescent cholesterol ester between liposomes—modified according to the procedure of Bisgaier et al., J. Lipid Res. 34, 1625 (1993).
For the production of the donor liposomes, 1 mg of cholesteryl 4,4-difluoro-5,7-dimethyl-4-bora-3a,4a-diaza-s-indacene-3-dodecanoate (cholesteryl BODIPY® FL C12, Molecular Probes) is dissolved in 600 μl of dioxane with 5.35 mg of triolein and 6.67 mg of phosphatidylcholine with gentle warming in an ultrasonic bath and this solution is added very slowly with ultrasonication to 63 ml of 50 mM tris/HCl, 150 mM NaCl, 2 mM EDTA buffer pH 7.3 at RT.
The suspension is then ultrasonicated under an N2 atmosphere for 30 minutes in the Braukson ultrasonic bath at about 50 watts, the temperature being kept at about 20° C.
The acceptor liposomes are obtained analogously from 86 mg of cholesteryl oleate, 20 mg of triolein and 100 mg of phosphatidylcholine dissolved in 1.2 ml of dioxane and 114 ml of above buffer by ultrasonication at 50 watts (20° C.) for 30 minutes.
For testing, a test mix consisting of 1 part of above buffer, 1 part of donor liposomes and 2 parts of acceptor liposomes is used.
80 μl of test mix are treated with 1-3 μg of enriched CETP fraction, obtained from human plasma by means of hydrophobic chromatography, and 2 μl of the substance to be investigated in DMSO and incubated at 37° C. for 4 hours.
The change in the fluorescence at 485/535 nm is a measure of the CE transfer; the inhibition of the transfer in comparison to the control batch without substance is determined.

CETP [2] = molecular target: T1, CETP; assay: CETP-SPA test; format: biochemical; conditions: 3H-cholesterol ester transfer from HDL to biotin-LDL, 37° C., 18 h
Experimental: as §1
50 ml of fresh human EDTA plasma are adjusted to a density of 1.12 using NaBr and centrifuged at 4° C. in a Ty 65 rotor at 50000 rpm for 18 h. The upper phase is used for the obtainment of cold LDL. The lower phase is dialysed against 3×41 of PDB buffer (10 mM tris/HCl pH 7.4, […], 1 mM EDTA, 0.02% NaN3). Per 10 ml of retentate volume, 20 μl of 3H-cholesterol (Dupont NET-725; 1 μC/μl dissolved in ethanol!) is then added and the mixture is incubated at 37° C. under N2 for 72 h.
The batch is then adjusted to the density 1.21 using NaBr and centrifuged at 20° C. in a Ty 65 rotor at 50000 rpm for 18 h. The upper phase is recovered and the lipoprotein fractions are purified by gradient centrifugation. To this end, the isolated, labelled lipoprotein fraction is adjusted to a density of 1.26 using NaBr. 4 ml each of this solution are covered in centrifuged tubes (SW 40 rotor) with a layer of 4 ml of a solution of density 1.21 and 4.5 ml of a solution of 1.063 (density solutions of PDB buffer and NaBr) and then centrifuged for 24 h at 38000 rpm and 20° C. in the SW 40 rotor. The intermediate layer lying between the density 1.063 and 1.21, containing the labelled HDL, is dialysed against 3×100 volumes of PDB buffer at 4° C.
The retentate contains radiolabelled ^3H-CE-HDL, which, adjusted to about 5×10^6 cmp per ml, is used for the test.
For testing of the CETP activity, the transfer of ^3H-cholesterol ester from human HD lipoproteins to biotinylated LD lipoproteins is measured.
The reaction is ended by addition of streptavidin-SPA®beads (Amersham) and the transferred radioactivity is determined directly in a liquid scintillation counter.
In the test batch, 10 μl of HDL-^3H-cholesterol ester (˜50000 cpm) are incubated at 37° C. for 18 h with 10 μl of biotin-LDL (Amersham) in 50 mM Hepes/0.15 M NaCl/0.1% bovine serum albumin/0.05% NaN3 pH 7.4 containing 10 μl of CETP (1 mg/ml) and 3 μl of solution of the substance to be tested (dissolved in 10% DMSO/1% RSA). 200 μl of the SPA-streptavidin bead solution (TRKQ 7005) are then added, incubated further with shaking for 1 h and then measured in a scintillation counter.
Corresponding incubations with 10 μl of buffer, 10 μl of CETP at 4° C. and 10 μl of CETP at 37° C. serve as controls.
The activity transferred in the control batches with CETP at 37° C. is rated as 100% transfer. The substance concentration at which this transfer is reduced to half is specified as the IC50 value.

[3] = molecular target: T2, CETP activity in the serum (Homo sapiens, UniProt P11597); assay: Ex vivo activities on transgenic hCETP mice (serum CETP activity after oral administration); conditions: mouse, cholesteryl ester transport in serum
T2 construct: determination of its basal CETP activity in the serum; from tissue; host or cells: serum of transgenic hCETP mice
T2 sequence (P11597 18-493): T1 sequence (P11597 18-493)
Experimental: To test for CETP-inhibitory activity, the substances are administered orally using a stomach tube to transgenic hCETP mice of our own breeding (Dinchuk et al. BBA (1995) 1295-301). To this end, male mice are randomly assigned to groups having an equal number of animals, as a rule n=3, one day before the start of the experiment. Before administration of the substance, blood is taken from each mouse by puncture of the retroorbital venous plexus for the determination of its basal CETP activity in the serum (T1). The test substance is then administered to the animals using the stomach tube. At specific times after administration of the test substance, blood is taken from the animals by puncture a second time (T2), as a rule 1, or 3 and 6 h after substance administration, but if appropriate this can also be carried out at another time.
In order to be able to assess the inhibitory activity of a substance, for each time, i.e. 1 or 3 or 6 h, a corresponding control group is employed whose animals only receive the formulating agent without substance. In the control animals, the second blood sampling per animal is carried out as in the substance-treated animals in order to be able to determine the change in the CETP activity without inhibitor over the corresponding experimental time interval (1, 3 or 6 h).
After termination of the clotting, the blood samples are centrifuged and the serum is removed by pipette.
For the determination of the CETP activity, the cholesteryl ester transport over 4 h is determined. To this end, as a rule 2 μl of serum are employed in the test batch and the test is carried out as described under “CETP fluorescence test”.
The differences in the cholesteryl ester transport (pM CE*/h (T2)−pM CE*/h (T1)) are calculated for each animal and averaged in the groups. A substance which at one of the times reduces the cholesteryl ester transport by >30% is regarded as active.

[4] = 1 h after administration, read-out: % inhibition at 30 mg/kg, 1 h
[5] = 3 h after administration, read-out: % inhibition at 30 mg/kg, 3 h
[6] = 6 h after administration, read-out: % inhibition at 30 mg/kg, 6 h

SMILES | IC50 (CETP [1]) | IC50 (CETP [2]) | inhibition at 30 mg/kg [3, 4] | inhibition at 30 mg/kg [3, 5] | inhibition at 30 mg/kg [3, 6]
O[C@@H](c1ccc(C(F)(F)F)cc1)c1c(C2CCCC2)nc2c(c1-c1ccccc1)[C@@H](O)CC1(CCC1)C2 [Example 55, (5S)-2-Cyclopentyl-4-phenyl-3-[(S)-hydroxy-(4-trifluoromethylphenyl)-methyl]-7-spirocyclobutyl-5,6,7,8-tetrahydroquinolin-5-ol] | 65 nM |  |  |  | 
CC(C)c1nc2c(c(-c3ccsc3)c1[C@@H](O)c1ccc(C(F)(F)F)cc1)[C@@H](O)CC1(CCC1)C2 [Example 57, (5S)-2-Isopropyl-4-(3-thienyl)-3-[(S)-hydroxy-(4-trifluoromethylphenyl)-methyl]-7-spirocyclobutyl-5,6,7,8-tetrahydroquinolin-5-ol] | 45 nM | 40 nM |  |  | 
O[C@@H](c1ccc(C(F)(F)F)cc1)c1c(C2CCCC2)nc2c(c1-c1ccsc1)[C@@H](O)CC1(CCC1)C2 [Example 59, (5S)-2-Cyclopentyl-4-(3-thienyl)-3-[(S)-hydroxy-(4-trifluoromethylphenyl)-methyl]-7-spirocyclobutyl-5,6,7,8-tetrahydroquinolin-5-ol] | 60 nM | 35 nM |  |  | 
O[C@@H](c1ccc(C(F)(F)F)cc1)c1c(C2CCCC2)nc2c(c1-c1cccs1)[C@@H](O)CC1(CCC1)C2 [Example 63, (5S)-2-Cyclopentyl-4-(2-thienyl)-3-[(S)-hydroxy-(4-trifluoromethylphenyl)-methyl]-7-spirocyclobutyl-5,6,7,8-tetrahydroquinolin-5-ol] | 70 nM |  | 74% | 55% | 40%
CC(C)c1nc2c(c(C3CCCCC3)c1[C@@H](O)c1ccc(C(F)(F)F)cc1)[C@@H](O)CC1(CCC1)C2 [Example 65, (5S)-2-Isopropyl-4-cyclohexyl-3-[(S)-hydroxy-(4-trifluoromethylphenyl)-methyl]-7-spirocyclobutyl-5,6,7,8-tetrahydroquinolin-5-ol] | 80 nM |  | 69% | 46% | 28%
O[C@@H](c1ccc(C(F)(F)F)cc1)c1c(C2CCCC2)nc2c(c1C1CCCCC1)[C@@H](O)CC1(CCC1)C2 [Example 67, (5S)-2-Cyclopentyl-4-cyclohexyl-3-[(S)-hydroxy-(4-trifluoromethylphenyl)-methyl]-7-spirocyclobutyl-5,6,7,8-tetrahydroquinolin-5-ol] | 60 nM | 15 nM |  |  | 
O[C@@H](c1ccc(C(F)(F)F)cc1)c1c(C2CCCC2)nc2c(c1C1CCC1)[C@@H](O)CC1(CCC1)C2 [Example 73, (5S)-2-Cyclopentyl-4-cyclobutyl-3-[(S)-hydroxy-(4-trifluoromethylphenyl)-methyl]-7-spirocyclobutyl-5,6,7,8-tetrahydroquinolin-5-ol] | 800 nM |  |  |  | 
CC(C)c1c([C@@H](O)c2ccc(C(F)(F)F)cc2)c(C2CCCC2)nc2c1[C@@H](O)CC1(CCC1)C2 [Example 75, (5S)-2-Cyclopentyl-4-isopropyl-3-[(S)-hydroxy-(4-trifluoromethylphenyl)-methyl]-7-spirocyclobutyl-5,6,7,8-tetrahydroquinolin-5-ol] | 70 nM |  |  |  | 
CCCc1c([C@@H](O)c2ccc(C(F)(F)F)cc2)c(C2CCCC2)nc2c1[C@@H](O)CC1(CCC1)C2 [Example 77, (5S)-2-Cyclopentyl-4-(1-propyl)-3-[(S)-hydroxy-(4-trifluoromethylphenyl)-methyl]-7-spirocyclobutyl-5,6,7,8-tetrahydroquinolin-5-ol] | 2000 nM |  |  |  | 
